Test results from PubChem BioAssay (NCI).
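Exposure lasted 48 hours, with cells grown in 96-well plates and compounds tested at five concentrations. GI50 is the concentration that inhibits growth by half. At the TGI there is no net growth.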

Assays:
Experiment in all cases: NCI tumour cell line growth inhibition, 48 h
[1] = tested on: SN12C renal
[2] = tested on: CCRF-CEM leukemia
[3] = tested on: LOX IMVI melanoma
[4] = tested on: T-47D breast
[5] = tested on: NCI-H460 lung
[6] = tested on: MCF7 breast
[7] = tested on: CAKI-1 renal
[8] = tested on: SF-539 CNS
[9] = tested on: UACC-257 melanoma
[10] = tested on: EKVX NSCLC
[11] = tested on: MDA-MB-231 breast
[12] = tested on: U251 CNS
[13] = tested on: MALME-3M melanoma
[14] = tested on: K-562 leukemia
[15] = tested on: OVCAR-3 ovarian
[16] = tested on: RXF 393 renal
[17] = tested on: HS 578T breast
[18] = tested on: HL-60(TB) leukemia
[19] = tested on: RPMI-8226 leukemia
[20] = tested on: UO-31 renal
[21] = tested on: A498 renal
[22] = tested on: TK-10 renal
[23] = tested on: HOP-92 NSCLC
[24] = tested on: NCI-H226 lung
[25] = tested on: OVCAR-4 ovarian
[26] = tested on: NCI/ADR-RES ovarian
[27] = tested on: PC-3 prostate
[28] = tested on: SNB-75 CNS
[29] = tested on: 786-0 renal
[30] = tested on: COLO 205 colon
[31] = tested on: UACC-62 melanoma
[32] = tested on: SF-295 CNS
[33] = tested on: MOLT-4 leukemia
[34] = tested on: SF-268 CNS
[35] = tested on: BT-549 breast
[36] = tested on: IGROV1 ovarian
[37] = tested on: KM12 colon
[38] = tested on: OVCAR-5 ovarian
[39] = tested on: HCC-2998 colon
[40] = tested on: NCI-H23 lung
[41] = tested on: M14 melanoma
[42] = tested on: SK-OV-3 ovarian
[43] = tested on: HOP-62 NSCLC
[44] = tested on: ACHN renal
[45] = tested on: HT29 colon
[46] = tested on: A549 NSCLC
[47] = tested on: HCT-15 colon
[48] = tested on: SR leukemia
[49] = tested on: MDA-MB-435
[50] = tested on: SNB-19 CNS
[51] = tested on: SK-MEL-5 melanoma
[52] = tested on: HCT-116 colon
[53] = tested on: SK-MEL-28 melanoma
[54] = tested on: SW-620 colon
[55] = tested on: NCI-H522 lung
[56] = tested on: OVCAR-8 ovarian
[57] = tested on: SK-MEL-2 melanoma
[58] = tested on: DU-145 prostate

In the case of `C[C@H]1[C@H]2[C@H]3CC[C@@H]4[C@@]5(C)C/C(=C/c6cccnc6)C(=O)C(C)(C)[C@@H]5CC[C@@]4(C)[C@]3(C)CC[C@]23CO[C@]1(C)[C@@H](C(=O)/C=C\c1cccnc1)C3`, the GI50 [1] is reported as 1100 nM, the TGI [1] is reported as over 11.8 µM and the GI50 [2] is reported as 440 nM. For the same compound, the TGI [2] was over 50 µM, the GI50 [3] was 783 nM and the TGI [3] was 1.57 µM. For the same compound, the GI50 [4] was 1980 nM, the TGI [4] was over 50 µM and the GI50 [5] was 929 nM. The TGI [5] was 1940 nM, the GI50 [6] was 842 nM and the TGI [6] was 6.25 µM. For the same compound, the GI50 [7] was 1450 nM, the TGI [7] was over 15.4 µM and the GI50 [8] was 1030 nM. It also gave a TGI [8] of 2.31 µM, a GI50 [9] of 1740 nM and a TGI [9] of 9.85 µM. For the same compound, the GI50 [10] was 1560 nM, the TGI [10] was 6.4 µM and the GI50 [11] was 1270 nM. The TGI [11] was 8.01 µM, the GI50 [12] was 964 nM and the TGI [12] was 2.07 µM. It also gave a GI50 [13] of 849 nM, a TGI [13] of 1.91 µM and a GI50 [14] of 151 nM. For the same compound, the TGI [14] was over 50 µM, the GI50 [15] was 886 nM and the TGI [15] was 1.91 µM. For the same compound, the GI50 [16] was 824 nM, the TGI [16] was 1.56 µM and the GI50 [17] was 1440 nM. For the same compound, the TGI [17] was 7.4 µM, the GI50 [18] was 794 nM and the TGI [18] was 2.53 µM. It also gave a GI50 [19] of 255 nM, a TGI [19] of 2.26 µM and a GI50 [20] of 675 nM. It also gave a TGI [20] of 1370 nM, a GI50 [21] of 661 nM and a TGI [21] of 1540 nM. For the same compound, the GI50 [22] was 1720 nM, the TGI [22] was 8.21 µM and the GI50 [23] was 844 nM. For the same compound, the TGI [23] was 3.11 µM, the GI50 [24] was 970 nM and the TGI [24] was 2100 nM. It also gave a GI50 [25] of 1500 nM, a TGI [25] of over 50 µM and a GI50 [26] of 1540 nM. The TGI [26] was over 50 µM, the GI50 [27] was 498 nM and the TGI [27] was 3.37 µM. The GI50 [28] was 990 nM, the TGI [28] was 3.69 µM and the GI50 [29] was 905 nM. For the same compound, the TGI [29] was 1.95 µM, the GI50 [30] was 1430 nM and the TGI [30] was 4.53 µM. The GI50 [31] was 670 nM, the TGI [31] was 1.67 µM and the GI50 [32] was 1380 nM. It also gave a TGI [32] of 6.21 µM, a GI50 [33] of 524 nM and a GI50 [34] of 1270 nM. The TGI [34] was 4.17 µM, the GI50 [35] was 785 nM and the TGI [35] was 1.83 µM. The GI50 [36] was 975 nM, the TGI [36] was 2200 nM and the GI50 [37] was 892 nM. It also gave a TGI [37] of 1.86 µM, a GI50 [38] of 1460 nM and a TGI [38] of 4.43 µM. For the same compound, the GI50 [39] was 868 nM, the TGI [39] was 1.67 µM and the GI50 [40] was 1030 nM. The TGI [40] was 2.48 µM, the GI50 [41] was 1570 nM and the TGI [41] was 11.9 µM. The GI50 [42] was 5.9 µM, the TGI [42] was over 50 µM and the GI50 [43] was 1470 nM. It also gave a TGI [43] of over 15 µM, a GI50 [44] of 1490 nM and a TGI [44] of 4.81 µM. For the same compound, the GI50 [45] was 1160 nM, the TGI [45] was 3.73 µM and the GI50 [46] was 1220 nM. It also gave a TGI [46] of 3.29 µM, a GI50 [47] of 982 nM and a TGI [47] of 2.56 µM. For the same compound, the GI50 [48] was 371 nM, the GI50 [49] was 1170 nM and the TGI [49] was 2.93 µM. For the same compound, the GI50 [50] was 869 nM, the TGI [50] was 1.76 µM and the GI50 [51] was 836 nM. The TGI [51] was 1.54 µM, the GI50 [52] was 385 nM and the TGI [52] was 1.28 µM. For the same compound, the GI50 [53] was 1020 nM, the TGI [53] was 2.2 µM and the GI50 [54] was 1020 nM. It also gave a TGI [54] of 2.51 µM, a GI50 [55] of 1150 nM and a TGI [55] of 3.07 µM. For the same compound, the GI50 [56] was 1590 nM, the TGI [56] was over 50 µM and the GI50 [57] was 1210 nM. It also gave a TGI [57] of 2.83 µM, a GI50 [58] of 923 nM and a TGI [58] of 1710 nM.
`Cl/C(=C\C=Nc1ccc(I)cc1)c1ccc2ccccc2c1` was tested, and the TGI [1] was 40.6 µM, the TGI [2] was over 25.1 µM and the TGI [3] was 30.9 µM. For the same compound, the TGI [4] was 61.9 µM, the TGI [5] was over 79400 nM and the TGI [6] was over 87.5 µM. For the same compound, the TGI [7] was 29 µM, the TGI [8] was 44.4 µM and the TGI [9] was 33.8 µM. It also gave a TGI [10] of over 100 µM, a TGI [11] of 36 µM and a TGI [12] of 35 µM. It also gave a TGI [13] of 42 µM, a TGI [14] of 31.8 µM and a TGI [15] of 30.9 µM. For the same compound, the TGI [16] was 61.8 µM, the TGI [17] was over 87.7 µM and the TGI [18] was 44.4 µM. For the same compound, the TGI [19] was 56.5 µM, the TGI [20] was over 55900 nM and the TGI [21] was over 90000 nM. It also gave a TGI [22] of 49.6 µM, a TGI [23] of over 85 µM and a TGI [24] of over 59700 nM. It also gave a TGI [25] of 46.5 µM, a TGI [26] of 32.5 µM and a TGI [27] of over 100 µM. For the same compound, the TGI [28] was over 79.9 µM, the TGI [29] was 40.7 µM and the TGI [30] was 43 µM. The TGI [31] was 34.3 µM, the TGI [32] was 51.3 µM and the TGI [33] was 13.6 µM. For the same compound, the TGI [34] was 65.4 µM, the TGI [35] was 47 µM and the TGI [36] was over 55700 nM. The TGI [37] was 33.5 µM, the TGI [38] was over 64.6 µM and the TGI [39] was 17.8 µM. For the same compound, the TGI [40] was 31 µM, the TGI [41] was 31.5 µM and the TGI [42] was 74.4 µM. The TGI [43] was 40.7 µM, the TGI [44] was 29.9 µM and the TGI [45] was over 100 µM. For the same compound, the TGI [46] was over 100 µM, the TGI [47] was 33.8 µM and the TGI [48] was 19 µM. For the same compound, the TGI [49] was 28 µM, the TGI [50] was 39.7 µM and the TGI [51] was 38.7 µM. For the same compound, the TGI [52] was 33.2 µM, the TGI [53] was 46.2 µM and the TGI [54] was 68.6 µM. For the same compound, the TGI [55] was over 100 µM, the TGI [56] was 41.3 µM and the TGI [57] was 56.1 µM. The TGI [58] was over 61400 nM.
